The target of test [1] is Activin receptor type-1 (Homo sapiens) (UniProt Q04771). Nature of the test: Inhibition of tracer 236 binding to recombinant human GST-tagged ALK2 catalytic domain (145 to 509 residues) expressed in baculovirus at 0.1 uM measured after 60 mins by Lanthascreen assay relative to control.
The target in test [2] is Muscle, skeletal receptor tyrosine-protein kinase (Homo sapiens) (UniProt O15146). Nature of the test: Inhibition of recombinant human GST-tagged MUSK (519 to 869 residues) expressed in baculovirus expression system at 0.1 uM using tyrosine-4 peptide as substrate incubated for 60 mins by Z'-LYTE assay relative to control.
Muscle, skeletal receptor tyrosine-protein kinase (Homo sapiens), sequence (O15146 whole entry, the tested form may be a part): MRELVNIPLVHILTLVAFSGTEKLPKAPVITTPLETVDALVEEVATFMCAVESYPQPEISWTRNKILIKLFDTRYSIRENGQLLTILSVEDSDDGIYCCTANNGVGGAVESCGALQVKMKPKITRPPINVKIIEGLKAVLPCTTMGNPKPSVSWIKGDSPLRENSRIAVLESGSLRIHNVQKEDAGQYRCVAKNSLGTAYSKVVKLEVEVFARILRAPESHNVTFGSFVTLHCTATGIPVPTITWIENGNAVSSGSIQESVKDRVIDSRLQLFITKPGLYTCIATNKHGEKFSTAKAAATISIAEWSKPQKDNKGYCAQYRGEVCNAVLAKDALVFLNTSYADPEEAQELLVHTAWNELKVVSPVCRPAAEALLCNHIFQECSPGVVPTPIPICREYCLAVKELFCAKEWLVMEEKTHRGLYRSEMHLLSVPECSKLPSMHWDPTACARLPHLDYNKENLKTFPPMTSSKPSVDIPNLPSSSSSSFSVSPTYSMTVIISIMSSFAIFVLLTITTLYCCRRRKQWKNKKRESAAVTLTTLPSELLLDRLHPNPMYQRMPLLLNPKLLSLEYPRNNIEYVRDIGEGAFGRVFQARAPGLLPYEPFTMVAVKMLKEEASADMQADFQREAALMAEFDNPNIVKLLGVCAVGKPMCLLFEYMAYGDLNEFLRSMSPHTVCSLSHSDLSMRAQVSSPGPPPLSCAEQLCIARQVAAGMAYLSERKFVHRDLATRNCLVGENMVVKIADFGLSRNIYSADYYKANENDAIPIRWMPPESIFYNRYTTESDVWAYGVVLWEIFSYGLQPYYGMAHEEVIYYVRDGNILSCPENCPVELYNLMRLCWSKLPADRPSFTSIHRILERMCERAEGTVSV
Test [3] addresses Protein kinase C eta type (Homo sapiens) (UniProt P24723). As to the kind of experiment: Inhibition of recombinant full length human His-tagged PKCeta expressed in baculovirus expression system at 0.1 uM using serine/threonine-7 peptide as substrate incubated for 60 mins by Z'-LYTE assay relative to control.
Test [4] concerns the target Cyclin-dependent kinase 14/Cyclin-Y (Homo sapiens) (UniProt O94921+Q8ND76). Nature of the test: Inhibition of tracer 236 binding to recombinant human GST-tagged CDK14/cyclin Y catalytic domain (CDK14: full length, Cyclin Y: 2 to end) expressed by baculovirus in Sf9 insect cells expression system at 0.1 uM measured after 60 mins by Lanthascreen assay relative to control. In general terms: TR-FRET usually uses a lanthanide donor and a delayed reading to cut background.

The target of test [5] is Ribosomal protein S6 kinase beta-1 (Homo sapiens) (UniProt P23443). Nature of the test: Inhibition of recombinant human GST-tagged p70S6K catalytic domain (1 to 421 residues) expressed in baculovirus expression system at 0.1 uM using serine/threonine-7 peptide as substrate incubated for 60 mins by Z'-LYTE assay relative to control.
For test [6], the target named is Platelet-derived growth factor receptor alpha (Homo sapiens) (UniProt P16234). As to the kind of experiment: Inhibition of recombinant human GST-tagged PDGFRalpha (550 to 1089 residues) expressed in baculovirus expression system at 0.1 uM using tyrosine-4 peptide as substrate incubated for 60 mins by Z'-LYTE assay relative to control.
The target in test [7] is Receptor-interacting serine/threonine-protein kinase 2 (Homo sapiens) (UniProt O43353). Nature of the test: Inhibition of tracer 178 binding to recombinant human His-tagged RIPK2 catalytic domain (1 to 299 residues) expressed in baculovirus expression system at 0.1 uM measured after 60 mins by Lanthascreen assay relative to control.
In test [8] the target is MAP kinase-activated protein kinase 5 (Homo sapiens) (UniProt Q8IW41). As to the kind of experiment: Inhibition of recombinant full length human His-tagged PRAK expressed in baculovirus expression system at 0.1 uM using serine/threonine-4 peptide as substrate incubated for 60 mins by Z'-LYTE assay relative to control.
For test [9], the target named is Mitogen-activated protein kinase kinase kinase 9 (Homo sapiens) (UniProt P80192). As to the kind of experiment: Inhibition of recombinant human GST-tagged MLK1 catalytic domain (1 to 500 residues) expressed in baculovirus expression system at 0.1 uM using serine/threonine-7 peptide as substrate incubated for 60 mins by Z'-LYTE assay relative to control.
Mitogen-activated protein kinase kinase kinase 9 (Homo sapiens), sequence (P80192 whole entry, looked up, the tested form may be a part): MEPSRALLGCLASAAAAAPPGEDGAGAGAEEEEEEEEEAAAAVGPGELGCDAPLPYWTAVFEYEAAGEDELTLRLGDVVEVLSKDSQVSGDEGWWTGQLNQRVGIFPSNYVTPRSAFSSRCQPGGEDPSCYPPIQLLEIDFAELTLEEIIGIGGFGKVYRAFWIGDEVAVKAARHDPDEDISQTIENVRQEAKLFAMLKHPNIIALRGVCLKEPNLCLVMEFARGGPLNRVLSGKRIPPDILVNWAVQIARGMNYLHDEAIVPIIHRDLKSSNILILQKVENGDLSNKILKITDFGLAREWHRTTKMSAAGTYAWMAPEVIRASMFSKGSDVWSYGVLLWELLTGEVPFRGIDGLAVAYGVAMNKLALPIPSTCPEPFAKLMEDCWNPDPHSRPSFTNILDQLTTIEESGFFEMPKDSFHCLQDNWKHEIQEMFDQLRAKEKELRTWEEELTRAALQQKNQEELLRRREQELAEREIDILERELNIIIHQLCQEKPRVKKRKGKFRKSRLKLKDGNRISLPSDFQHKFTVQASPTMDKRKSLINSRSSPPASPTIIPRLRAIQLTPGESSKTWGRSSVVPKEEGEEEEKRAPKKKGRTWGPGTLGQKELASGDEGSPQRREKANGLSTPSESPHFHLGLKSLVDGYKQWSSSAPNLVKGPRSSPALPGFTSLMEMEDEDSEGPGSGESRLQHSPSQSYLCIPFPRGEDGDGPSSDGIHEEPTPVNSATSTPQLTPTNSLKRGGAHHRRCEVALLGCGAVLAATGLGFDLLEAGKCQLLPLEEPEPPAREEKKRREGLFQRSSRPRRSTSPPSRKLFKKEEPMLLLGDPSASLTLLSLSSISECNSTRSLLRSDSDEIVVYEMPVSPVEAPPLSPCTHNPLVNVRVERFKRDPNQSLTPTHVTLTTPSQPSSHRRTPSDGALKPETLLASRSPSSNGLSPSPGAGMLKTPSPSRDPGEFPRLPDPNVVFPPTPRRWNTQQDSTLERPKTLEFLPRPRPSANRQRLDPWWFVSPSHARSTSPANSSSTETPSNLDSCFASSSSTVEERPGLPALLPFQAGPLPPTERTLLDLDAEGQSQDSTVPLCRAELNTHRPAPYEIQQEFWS
The target in test [10] is Homeodomain-interacting protein kinase 1 (Homo sapiens) (UniProt Q86Z02). As to the kind of experiment: Inhibition of recombinant human GST-tagged HIPK1 catalytic domain (158 to 555 residues) expressed in baculovirus expression system at 0.1 uM using serine/threonine-9 peptide as substrate incubated for 60 mins by Z'-LYTE assay relative to control.
For test [11], the target named is Insulin-like growth factor 1 receptor (Homo sapiens) (UniProt P08069). As to the kind of experiment: Inhibition of recombinant human His-tagged IGF1R catalytic domain (960 to 1397 residues) expressed in baculovirus expression system at 0.1 uM using tyrosine-1 peptide as substrate incubated for 60 mins by Z'-LYTE assay relative to control.
Test [12] has as its target cGMP-dependent protein kinase 1 (Homo sapiens) (UniProt Q13976). Nature of the test: Inhibition of recombinant full length human GST-tagged PKG1 alpha expressed in baculovirus expression system at 0.1 uM using CREBtide as substrate 60 mins by Lanthascreen assay relative to control.
Test [13] concerns the target Serine/threonine-protein kinase Nek9 (Homo sapiens) (UniProt Q8TD19). Nature of the test: Inhibition of recombinant human GST-tagged NEK9 catalytic domain (347 to 732 residues) expressed in baculovirus expression system at 0.1 uM using serine/threonine-7 peptide as substrate incubated for 60 mins by Z'-LYTE assay relative to control.
Test [14] addresses Eukaryotic elongation factor 2 kinase (Homo sapiens) (UniProt O00418). As to the kind of experiment: Inhibition of recombinant full length human GST-tagged EEF2K expressed in Escherichia coli expression system at 0.1 uM using serine/threonine-24 peptide as substrate incubated for 60 mins by Z'-LYTE assay relative to control.
Test [15] deals with Epidermal growth factor receptor (Homo sapiens), P00533 [L858R,T790M]. As to the kind of experiment: Inhibition of recombinant human GST-tagged EGFR T790M/L858R mutant (668 to 1210: T790M/L858R residues)expressed in baculovirus expression system at 0.1 uM using tyrosine-4 peptide as substrate incubated for 60 mins by Z'-LYTE assay relative to control.
Test [16] deals with Leukocyte tyrosine kinase receptor (Homo sapiens) (UniProt P29376). As to the kind of experiment: Inhibition of recombinant human GST-tagged LTK (450 to 864 residues) expressed in baculovirus expression system at 0.1 uM using tyrosine-6 peptide as substrate incubated for 60 mins by Z'-LYTE assay relative to control.
Test [17] has as its target Cytoplasmic tyrosine-protein kinase BMX (Homo sapiens) (UniProt P51813). Nature of the test: Inhibition of recombinant full length human His-tagged BMX expressed in baculovirus expression system at 0.1 uM using tyrosine-1 peptide as substrate incubated for 60 mins by Z'-LYTE assay relative to control.
In test [18] the target is LIM domain kinase 1 (Homo sapiens) (UniProt P53667). Nature of the test: Inhibition of tracer 236 binding to recombinant human His-tagged LIMK1 catalytic domain (285 to 638 residues) expressed in baculovirus expression system at 0.1 uM measured after 60 mins by Lanthascreen assay relative to control.
LIM domain kinase 1 (Homo sapiens), sequence (P53667 whole entry, looked up, the tested form may be a part): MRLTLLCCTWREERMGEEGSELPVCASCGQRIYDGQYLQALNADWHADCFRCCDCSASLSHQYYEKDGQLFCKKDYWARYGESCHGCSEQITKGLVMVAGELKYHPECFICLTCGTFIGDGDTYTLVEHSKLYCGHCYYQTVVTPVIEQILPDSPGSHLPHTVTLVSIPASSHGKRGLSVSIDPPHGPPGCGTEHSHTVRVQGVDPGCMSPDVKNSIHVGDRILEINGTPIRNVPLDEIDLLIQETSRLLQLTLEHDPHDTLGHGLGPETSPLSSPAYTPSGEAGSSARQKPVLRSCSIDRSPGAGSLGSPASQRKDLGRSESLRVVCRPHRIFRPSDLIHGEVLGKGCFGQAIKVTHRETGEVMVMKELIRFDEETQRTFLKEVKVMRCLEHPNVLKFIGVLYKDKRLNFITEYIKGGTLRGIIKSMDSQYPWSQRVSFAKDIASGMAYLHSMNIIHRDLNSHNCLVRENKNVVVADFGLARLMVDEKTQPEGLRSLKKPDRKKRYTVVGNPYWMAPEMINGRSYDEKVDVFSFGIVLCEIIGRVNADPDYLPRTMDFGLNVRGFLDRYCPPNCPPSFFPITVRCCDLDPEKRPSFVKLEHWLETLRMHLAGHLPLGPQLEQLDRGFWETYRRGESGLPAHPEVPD
In test [19] the target is Mitogen-activated protein kinase 10 (Homo sapiens) (UniProt P53779). As to the kind of experiment: Inhibition of recombinant full length human GST-tagged JNK3 expressed in baculovirus expression system at 0.1 uM using serine/threonine-4 peptide as substrate incubated for 60 mins by Z'-LYTE assay relative to control.
For test [20], the target named is Mitogen-activated protein kinase 8 (Homo sapiens) (UniProt P45983). As to the kind of experiment: Inhibition of recombinant full length human His-tagged JNK1alpha1 expressed in baculovirus expression system at 0.1 uM using serine/threonine-4 peptide as substrate incubated for 60 mins by Z'-LYTE assay relative to control.
Mitogen-activated protein kinase 8 (Homo sapiens), sequence (P45983 whole entry): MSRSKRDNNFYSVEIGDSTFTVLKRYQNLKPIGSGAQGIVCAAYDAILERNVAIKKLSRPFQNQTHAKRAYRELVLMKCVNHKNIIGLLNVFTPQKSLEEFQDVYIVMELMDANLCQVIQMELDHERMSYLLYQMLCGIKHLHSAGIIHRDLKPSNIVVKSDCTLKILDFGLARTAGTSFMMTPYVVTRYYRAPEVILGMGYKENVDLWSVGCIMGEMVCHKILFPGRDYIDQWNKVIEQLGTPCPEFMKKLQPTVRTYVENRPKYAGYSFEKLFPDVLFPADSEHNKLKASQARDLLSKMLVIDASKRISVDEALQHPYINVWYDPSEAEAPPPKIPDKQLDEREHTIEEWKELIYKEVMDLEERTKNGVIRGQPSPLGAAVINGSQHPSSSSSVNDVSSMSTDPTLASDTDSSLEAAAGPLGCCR
The target in test [21] is Serine/threonine-protein kinase pim-1 (Homo sapiens) (UniProt P11309). Nature of the test: Inhibition of recombinant full length human His-tagged PIM1 expressed in baculovirus expression system at 0.1 uM using serine/threonine-7 peptide as substrate incubated for 60 mins by Z'-LYTE assay relative to control.
Test [22] concerns the target Serine/threonine-protein kinase Chk2 (Homo sapiens) (UniProt O96017). Nature of the test: Inhibition of recombinant full length human His-tagged CHK2 expressed in baculovirus expression system at 0.1 uM using serine/threonine-07 peptide as substrate incubated for 60 mins by Z'-LYTE assay relative to control.

The structures appear in SMILES notation.

In general, inhibition refers to the drop in the measured response relative to a control, in per cent.

Activin receptor type-1 (Homo sapiens), sequence (Q04771 whole entry, the tested form may be a part): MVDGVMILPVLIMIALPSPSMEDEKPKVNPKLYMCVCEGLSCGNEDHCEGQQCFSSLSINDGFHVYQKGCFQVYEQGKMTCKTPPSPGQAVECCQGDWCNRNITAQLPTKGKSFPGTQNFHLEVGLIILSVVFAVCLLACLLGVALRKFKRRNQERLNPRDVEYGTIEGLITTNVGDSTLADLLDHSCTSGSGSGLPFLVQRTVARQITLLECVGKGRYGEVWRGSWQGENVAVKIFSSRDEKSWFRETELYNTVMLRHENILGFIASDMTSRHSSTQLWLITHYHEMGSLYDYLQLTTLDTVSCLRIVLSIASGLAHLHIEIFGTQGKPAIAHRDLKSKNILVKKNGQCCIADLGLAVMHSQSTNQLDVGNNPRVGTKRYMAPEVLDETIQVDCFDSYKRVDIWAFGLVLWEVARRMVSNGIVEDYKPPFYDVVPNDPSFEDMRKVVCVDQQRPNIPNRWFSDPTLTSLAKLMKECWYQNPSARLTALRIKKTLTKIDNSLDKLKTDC
cGMP-dependent protein kinase 1 (Homo sapiens), sequence (Q13976 whole entry, the tested form may be a part): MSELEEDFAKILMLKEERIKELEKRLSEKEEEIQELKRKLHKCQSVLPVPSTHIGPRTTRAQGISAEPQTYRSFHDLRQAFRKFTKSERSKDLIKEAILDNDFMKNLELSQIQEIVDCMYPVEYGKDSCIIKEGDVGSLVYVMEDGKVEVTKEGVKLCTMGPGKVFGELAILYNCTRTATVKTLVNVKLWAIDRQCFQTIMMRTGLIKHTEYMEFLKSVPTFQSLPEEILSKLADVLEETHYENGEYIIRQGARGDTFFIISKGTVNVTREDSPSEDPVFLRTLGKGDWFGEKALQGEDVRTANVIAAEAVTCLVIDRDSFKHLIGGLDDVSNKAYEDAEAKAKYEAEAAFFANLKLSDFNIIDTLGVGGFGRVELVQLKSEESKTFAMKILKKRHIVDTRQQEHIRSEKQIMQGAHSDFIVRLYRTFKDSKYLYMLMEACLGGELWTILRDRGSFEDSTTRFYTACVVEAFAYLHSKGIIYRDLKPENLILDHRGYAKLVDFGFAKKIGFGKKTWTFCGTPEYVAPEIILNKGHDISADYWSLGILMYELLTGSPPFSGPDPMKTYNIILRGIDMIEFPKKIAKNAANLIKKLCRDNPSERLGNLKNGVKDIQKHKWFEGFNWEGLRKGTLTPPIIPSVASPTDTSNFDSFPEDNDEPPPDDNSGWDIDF
Eukaryotic elongation factor 2 kinase (Homo sapiens), sequence (O00418 whole entry): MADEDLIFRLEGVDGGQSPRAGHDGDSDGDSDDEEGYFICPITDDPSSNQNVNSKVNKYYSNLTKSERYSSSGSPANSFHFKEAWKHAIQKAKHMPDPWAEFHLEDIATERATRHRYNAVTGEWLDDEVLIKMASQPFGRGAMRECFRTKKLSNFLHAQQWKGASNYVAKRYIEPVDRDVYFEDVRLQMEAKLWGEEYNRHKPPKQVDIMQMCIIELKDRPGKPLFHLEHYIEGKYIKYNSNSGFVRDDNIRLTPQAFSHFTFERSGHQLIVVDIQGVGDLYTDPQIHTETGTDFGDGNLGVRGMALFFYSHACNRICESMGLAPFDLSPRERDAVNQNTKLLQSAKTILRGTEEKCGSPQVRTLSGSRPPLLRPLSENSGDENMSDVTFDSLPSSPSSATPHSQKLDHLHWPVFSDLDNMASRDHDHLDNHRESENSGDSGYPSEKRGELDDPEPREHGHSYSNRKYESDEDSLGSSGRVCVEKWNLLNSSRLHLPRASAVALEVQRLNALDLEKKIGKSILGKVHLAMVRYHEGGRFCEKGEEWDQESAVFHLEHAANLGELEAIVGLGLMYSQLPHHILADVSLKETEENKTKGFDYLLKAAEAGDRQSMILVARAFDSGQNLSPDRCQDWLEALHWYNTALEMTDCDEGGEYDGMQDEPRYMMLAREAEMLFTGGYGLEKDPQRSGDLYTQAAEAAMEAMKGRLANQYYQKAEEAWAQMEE

On to `CCN1CCN(Cc2ccc(Nc3ncc(F)c(-c4cc(F)c5nc(C)n(C(C)C)c5c4)n3)nc2)CC1` [ABEMACICLIB], for which the inhibition in test [1] came out at 30.5%; in test [2], 24.8%; in test [3] it was 35%; in test [4], 56%; in test [5], 5%; in test [6], 4.5%. Also, the inhibition in [7] came to 1.1%; in test [8], 5%; in test [9], 11.5%; in test [10], 78.5%; in [11], 14%; in [12], 1.5%. The inhibition worked out at 2% in test [13]; 8% in test [14]; 46% in [15]; 10.5% in [16]; 5.5% in test [17]; 3.7% in test [18]. In addition, the inhibition was found to be 59.1% in test [19], 46.2% in test [20], 95% in test [21] and 0.5% in test [22].
As to `CCN1CC2(C1)CN(c1ccc(Nc3ncc(F)c(-c4cnn5c4[C@H](C)CCCC5)n3)nc1)C2`, the inhibition in test [1] was determined as 28%; in [2], 10.5%; in test [3] it was 15.5%; in test [4], 41.5%; in test [5], 6%; in test [6], 2.5%. Also, the inhibition came out at 2% in [7]; 13.5% in test [8]; 47% in test [9]; 4.5% in [10]; 7% in test [11]; 6% in [12]. The inhibition was -1.5% in test [13]; 5.5% in [14]; 32.5% in test [15]; 25.5% in test [16]; -2% in test [17]; -2% in test [18]. Further, the inhibition stood at 66.5% in [19], 78% in [20], 11.5% in test [21] and 22.5% in test [22].

Values taken from ChEMBL document CHEMBL4385643, “Design of a brain-penetrant CDK4/6 inhibitor for glioblastoma” (Bioorg Med Chem Lett, 2019).
